Source: publication PMC9054212, “Discovery of 4-(2-(dimethylamino)ethoxy)benzohydrazide derivatives as prospective microtubule affinity regulating kinase 4 inhibitors” (RSC Advances, 2020)
Where two headings read alike, the source gives them in different places.

Experiments:
[1] = molecular target: T1, MARK4 (Homo sapiens, UniProt Q96L34); experiment: MARK4 ATPase enzyme inhibition assay; type: biochemical
T1 construct: MARK4 protein was expressed and purified by following previous protocols; made in house
T1 sequence (Q96L34 1-752): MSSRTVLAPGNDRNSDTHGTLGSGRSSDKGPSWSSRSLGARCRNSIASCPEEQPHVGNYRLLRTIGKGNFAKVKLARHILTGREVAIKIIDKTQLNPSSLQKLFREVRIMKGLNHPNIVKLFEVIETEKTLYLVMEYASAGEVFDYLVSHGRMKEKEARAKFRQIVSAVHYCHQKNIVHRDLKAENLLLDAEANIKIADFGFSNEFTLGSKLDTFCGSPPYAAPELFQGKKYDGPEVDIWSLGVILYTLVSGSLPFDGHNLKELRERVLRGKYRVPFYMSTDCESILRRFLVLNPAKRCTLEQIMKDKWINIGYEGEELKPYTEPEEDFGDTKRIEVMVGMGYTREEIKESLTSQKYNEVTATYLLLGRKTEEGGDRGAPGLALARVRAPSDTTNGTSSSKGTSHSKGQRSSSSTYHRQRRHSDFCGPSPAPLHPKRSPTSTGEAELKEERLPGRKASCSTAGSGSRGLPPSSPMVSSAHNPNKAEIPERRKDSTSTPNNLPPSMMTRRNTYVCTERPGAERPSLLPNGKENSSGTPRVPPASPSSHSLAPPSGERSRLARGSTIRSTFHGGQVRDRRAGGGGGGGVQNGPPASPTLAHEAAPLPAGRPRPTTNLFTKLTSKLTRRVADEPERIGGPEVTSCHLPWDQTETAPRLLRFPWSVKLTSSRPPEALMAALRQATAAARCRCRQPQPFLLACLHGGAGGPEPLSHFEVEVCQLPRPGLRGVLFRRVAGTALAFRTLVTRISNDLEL
Description: MARK4 protein was expressed and purified by following previous protocols.[27,37] The purity of the protein was further confirmed by a single band shown by SDS PAGE. ATPase assay was carried out to evaluate the enzyme activity of MARK4 in the presence of selected hydrazone derivatives. The activity of MARK4 was studied with the increasing concentration of each selected hydrazone derivative by following our published protocol.[24,38]
To further evaluate the inhibitory potential of selected compounds with MARK4, enzyme inhibition assay was performed (at a single dose of 10 μM). […] Thus, these two compounds were further selected and evaluated with MARK4 in a concentration-dependent manner. […] The percent inhibition of ATPase activity was plotted as a function of ligand concentration and used to estimate IC50 (concentration of 50% inhibition, Fig. 1A).

[2] = molecular target: T1, MARK4; experiment: Fluorescence quenching binding study with MARK4; details: Stern–Volmer plot, ligand 0–20 μM, MARK4 5 μM
Description: (§1) The binding affinity of selected hydrazone derivatives with human serum albumin (HSA) and MARK4 was carried out using fluorescence binding studies as described.[39] The values of binding constant (Ka) and a number of binding sites present in protein (n) were obtained by using the modified Stern–Volmer equation from the intercept and slope, respectively.
(§2) To measure the actual binding affinity of selected ligands with MARK4 and HSA, fluorescence quenching studies were performed.[43,44] Both MARK4 and HSA contain tryptophan residues, therefore it has been used as an intrinsic fluorophore to estimate the interaction of ligand. Protein was excited at 280 nm and the emission spectrum was recorded in 300–400 nm range. With increasing ligand concentrations (0–20 μM), the fluorescence intensity of MARK4 and HSA was decreases in a concentration-dependent manner (Fig. 3 and 4), indicating a considerable binding. Values of Ka and n were calculated from fluorescence emission spectra using the Stern–Volmer plot. […]
(§3) Fig. 3 Binding of compound H4 and H19 with MARK4. (A) Fluorescence emission spectra of MARK4 (5 μM) with increasing concentrations of compound H4 and H19. (B) Stern–Volmer plot obtained from the fluorescence quenching data of MARK4 by compound H4 and H19, respectively. Protein sample was excited at 280 nm and emission for each titration was recorded in the range of 300–400 nm. […]

[3] = molecular target: human serum albumin (HSA) (Homo sapiens, UniProt P02768); experiment: Fluorescence quenching binding study with HSA; details: Stern–Volmer plot, ligand 0–20 μM, HSA 5–10 μM
Description: as §1, §2
as §3, with “Fig. 4” for “Fig. 3”, “with HSA.” for “with MARK4.”, “of HSA (5–10” for “of MARK4 (5”, “of HSA” for “of MARK4”

[4] = tested on: MCF-7 cells; experiment: MTT cell proliferation assay, MCF-7; type: cell-based; details: Homo sapiens, read-out: IC50, cell proliferation, MCF-7 cells
Description: (§4) Human cell lines (HEK-293, A549 and MCF-7) were seeded and maintained in a medium supplemented with DMEM along with 10% heat-inactivated fetal bovine serum (Gibco) and 1% penicillin, streptomycin solution (Gibco), cultured in a 5% CO2 humidified incubator at 37 °C. Cell cultures were maintained and trypsinized regularly, not for more than 30 passages. MTT assay was carried out to see the effect of selected hydrazone compound treatment on the viability of non-cancerous (HEK-293) and cancerous cell lines (A549 and MCF-7) as per described method.[22,24] In brief, 6000–7000 cells per well were seeded in a 96-well plate and after 24 h growth, the cells were treated with increasing concentrations (0–200 μM) of each hydrazone (final volume of 200 μL) for 48 h at 37 °C in a humidified chamber. After 48 h, MTT was added (20 μL solution from 5 mg mL^−1 stock solution prepared in phosphate buffer saline, pH 7.4) to each well and plates were further incubated for 4–5 h at 37 °C in a CO2 incubator. The supernatant was aspirated and the formazan crystals were dissolved in 150 μL of DMSO. The absorbance (A) of final products was measured using multiplate ELISA reader (BioRad) at 570 nm. The percentage of cell viability was calculated and IC50 (50% inhibitory concentration) values of each hydrazone derivative were estimated (paclitaxel was taken as a positive control for cell proliferation studies).

[5] = tested on: A549 cells; experiment: MTT cell proliferation assay, A549; type: cell-based; details: Homo sapiens, read-out: IC50, cell proliferation, A549 cells
Description: as §4

[6] = tested on: HEK293 cells; experiment: MTT cell viability assay, non-cancerous HEK293; type: cell-based, human; details: at the IC50 or active concentration, compared with cancerous cells
Description: as §4

[7] = tested on: MCF-7 cells; experiment: Annexin-V/PI apoptosis assay by flow cytometry, MCF-7; type: cell-based, human; details: IC50 concentration, 48 h
Description: (§5) Annexin-V staining was used to assess the apoptotic potential of the selected hydrazones as described.[22,41] Briefly, cells were treated with IC50 concentration of selected hydrazones for 24 h and control cells were treated with DMSO/culture medium only. After 24 h incubation, approximately 2.0–2.5 × 10^6 cells were collected by trypsinization and washed twice with PBS (5–10 mL). Finally, FITC labelled Annexin-V and PE labelled PI was used for staining the cells using the FITC-Annexin-V kit by following manufacture instructions (BD-Biosciences, USA). Nearly, 10 000 events were recorded using BD LSR II Flow Cytometry Analyzer and analyzed by FlowJo software.
(§6) Cancer cells support their growth and maintenance by evading the apoptotic pathways.[48] MARK4 regulates the cancer cell growth and proliferation via modulating the apoptotic pathways.[12,15,46] The treatment of MCF-7 and A549 cells with H4 and H19 inhibit the activity of MARK4, decreases cell proliferation and migration raises the evaluation of these MARK4 inhibitors for the apoptosis induction. Thus, to investigate whether the selected inhibitor induces cell death via apoptosis or not, we have performed Annexin-V/PI staining using flow cytometry. Cells were treated with IC50 concentration of each molecule for 48 h and processed for apoptosis analysis. […]

[8] = tested on: A549 cells; experiment: Annexin-V/PI apoptosis assay by flow cytometry, A549; type: cell-based, human; details: IC50 concentration, 48 h
Description: as §5, §6

[9] = tested on: MARK4 and p-tau in MCF-7 cells; experiment: Immunoblotting of MARK4 and p-tau in treated MCF-7 cells; type: cell-based, human; details: IC50 concentration, vs control
Description: The compound treated cell line samples were lysed in RIPA cell lysis buffer (Thermo Fisher Scientific, USA) in an ice-cold condition using ultrasonication. Total protein was isolated and protein estimation was performed using Bicinchoninic Acid Assay (BCA-protein estimation kit). Nearly 30–40 μg of whole protein lysate was diluted with 6× Laemmli's buffer, boiled for 3–5 min and resolved using 10–12% SDS-polyacrylamide electrophoresis under reducing conditions. The resolved polypeptides were transferred to polyvinylidene fluoride (PVDF) membrane through blotting, peptide-specific primary antibodies were used for identification and horseradish peroxidase coupled conjugates were used for visualization using luminol as a chemiluminescent substrate.[40]
Next, we tried to see the inhibition potential of these molecules at the cellular level. Cells were treated with IC50 concentration of each molecule and processed for the expression studied of MARK4 and p-tau (substrate of MARK4). […] Phosphorylation of tau correspondingly decreases in the treated cells as compared to control (Fig. 1B).

[10] = tested on: MCF-7 cells; experiment: Trans-well cell migration assay, MCF-7; type: cell-based, human; details: IC50 concentration, 24 h, Boyden chamber, vs control
Description: (§7) Trans-well migration assay was performed using a modified Boyden chamber containing cell culture inserts (8 μm pore size, polyethylene terephthalate track-etched membrane, BD Falcon #353093). Briefly, cells were serum-starved for 3–4 h, trypsinized and suspended in a serum-free medium. In the upper chamber of cell culture insert, an equal number of cells with the IC50 dose of selected compounds or DMSO (control) were plated and in the lower chamber of well plate, 10% FBS-DMEM (for chemotaxis movement) was added. The cells were allowed to migrate for 24 h in a humidified 5% CO2 incubator at 37 °C and the migrated cells (that invaded through membrane pores) onto the lower side of Trans-well cell culture insert were fixed with methanol and staining was performed using 0.4% crystal violet in 25% methanol. The remaining cells present on the upper side of the chamber were wiped off with the help of cell scrapper/tissue wipes. Finally, the migrated cells present on the lower surface of the cell culture insert were imaged using a light microscope and counted in 3–5 random fields.

[11] = tested on: A549 cells; experiment: Trans-well cell migration assay, A549; type: cell-based, human; details: IC50 concentration, 24 h, Boyden chamber, vs control
Description: as §7

[12] = tested on: MCF-7 cells; experiment: Colony formation assay, MCF-7; type: cell-based, human; details: IC50 concentration, 10–12 days, vs control
Description: (§8) The colony-forming assay was performed to evaluate the effect of selected compounds on cell colonization potential of cancer cells. Briefly, cells were plated at a density of 1000–2000 (A549/MCf-7) cells per well in a six-well cell culture plate. Cells were grown for at least 24 h in cell growth medium and then incubated with IC50 concentration of selected compounds for 10–12 days at 37 °C (in a humidified 5% CO2 incubator). Control cells were treated with an equal percentage of DMSO. After 10–12 days, the cell colonies were fixed with 100% methanol and staining was performed using 0.4% crystal violet in 25% methanol. The colonies obtained was counted, plotted and compared with the controls.

[13] = tested on: A549 cells; experiment: Colony formation assay, A549; type: cell-based, human; details: IC50 concentration, 10–12 days, vs control
Description: as §8

[14] = bound stated after screen at a single dose of 10 μM, read-out: IC50, MARK4 enzyme inhibition
[15] = cell-free, concentration-dependent, read-out: IC50, inhibition of ATPase activity of MARK4

Chain of human serum albumin (HSA) (P02768 25-609): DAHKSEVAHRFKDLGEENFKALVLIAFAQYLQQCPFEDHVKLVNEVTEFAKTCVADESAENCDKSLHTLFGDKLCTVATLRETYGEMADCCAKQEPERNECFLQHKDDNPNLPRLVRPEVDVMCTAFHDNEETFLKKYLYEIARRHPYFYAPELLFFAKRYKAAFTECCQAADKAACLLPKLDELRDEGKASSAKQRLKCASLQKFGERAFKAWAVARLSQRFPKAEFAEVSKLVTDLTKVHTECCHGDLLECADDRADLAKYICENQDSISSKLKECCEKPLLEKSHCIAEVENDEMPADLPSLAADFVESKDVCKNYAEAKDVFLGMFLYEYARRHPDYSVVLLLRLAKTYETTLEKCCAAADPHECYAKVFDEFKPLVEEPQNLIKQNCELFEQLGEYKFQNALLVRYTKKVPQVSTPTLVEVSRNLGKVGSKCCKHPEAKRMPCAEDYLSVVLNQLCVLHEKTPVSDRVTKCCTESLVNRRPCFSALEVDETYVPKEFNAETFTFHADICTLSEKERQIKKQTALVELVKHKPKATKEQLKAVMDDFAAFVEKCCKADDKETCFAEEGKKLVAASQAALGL

| melting point | Compound | IC50 [1, 14] | IC50 [1, 15] | cytotoxicity to non-cancerous cells [6] | apoptosis induced, share of MCF-7 cells [7] | apoptosis induced, share of A549 cells [8] | protein level of MARK4 [9] | protein level of p-tau [9] | cell migration, MCF-7 [10] | cell migration, A549 [11] | number of colonies, MCF-7 [12] | number of colonies, A549 [13] | other results |
| --- | --- | --- | --- | --- | --- | --- | --- | --- | --- | --- | --- | --- | --- |
|  | Cc1cc(C)c(C=NNC(=O)c2ccc(OCCN(C)C)cc2)c(C)c1 [H19] | < 1 µM | 0.215 µM | less toxic | 26.71% | 24.25% | decreases | decreases | lesser number of cells were migrated | lesser number of cells were migrated | significantly decreased | significantly decreased | Kd ([2]; read-out: binding constant Ka for MARK4 (converted)): 0.0104 µM; Kd ([3]; read-out: binding constant Ka for HSA (converted)): 7.69 µM; IC50 ([4]; MCF7, 48 h): 34.4 µM; IC50 ([5]; A549, 48 h): 61.5 µM |
| 125 to 130 °C | CN(C)CCOc1ccc(C(=O)NN=Cc2cccc([N+](=O)[O-])c2)cc1 [H5] |  |  |  |  |  |  |  |  |  |  |  |  |
| 149 to 153 °C | CN(C)CCOc1ccc(C(=O)NN=Cc2ccccc2O)cc1 [H7] |  |  |  |  |  |  |  |  |  |  |  |  |
| 109 to 114 °C | CN(C)CCOc1ccc(C(=O)NN=Cc2ccc(O)cc2)cc1 [H8] |  |  |  |  |  |  |  |  |  |  |  |  |
| 96 to 100 °C | CN(C)CCOc1ccc(C(=O)NN=Cc2ccc([N+](=O)[O-])cc2)cc1 [H6] |  |  |  |  |  |  |  |  |  |  |  |  |
|  | CN(C)CCOc1ccc(C(=O)NN=Cc2ccc(Cl)cc2)cc1 [H4] | < 1 µM | 0.149 µM | less toxic | 30.29% | 28.5% | decreases | decreases | lesser number of cells were migrated | lesser number of cells were migrated | significantly decreased | significantly decreased | binding constant Ka for MARK4 [2]: 4.07e+09 M⁻¹; binding constant Ka for HSA [3]: 443000 M⁻¹; IC50 ([4]; MCF7, MTT, 48 h, 0–200 μM): 27.4 µM; IC50 ([5]; A549, MTT, 48 h, 0–200 μM): 45.2 µM |
